Laboratory results reported in patent US4514408A, “N-substituted nicotinamide 1-oxide as histamine H2 receptor blockers” (Sanofi, priority 1982, dated 1985).

Tests used:
[1] = target: T1, gastric histamine H2 receptors (Rattus norvegicus, UniProt P25102); assay: antisecretory activity: antagonism of gastric hypersecretion induced by histamine in the atropinised rat (Ghosh and Schild modified according to Black); type: in vivo; conditions: for ED50: intravenous, single administration, histamine i.v. infusion 15 mcmol/kg/hour, atropinised rat, read-out: ID50 (dose which inhibits by 50% the gastric hypersecretion induced by histamine)
T1 construct: the gastric secretion is measured by perfusion of a physiological solution at a constant speed in the stomach of the animal; from tissue; host or cells: stomach of the living atropinised rat (in vivo, endogenous receptor)
Experimental: According to this test, a gastric acid hypersecretion is induced by intravenous infusion of a sub-maximal dose of histamine equivalent to 15 mcmol/kg/hour and the gastric secretion is measured by perfusion of a physiological solution at a constant speed in the stomach of the animal.
Cimetidine and ranitidine, which represent standard compounds, as well as:
the compound of formula [drawing 5] as oxalate, and […]

histamine H2 receptors = conditions: i.v.; cited from earlier work
[2] = from ID50, i.v., cimetidine = 1

T1 sequence (P25102 whole entry, the tested form may be a part): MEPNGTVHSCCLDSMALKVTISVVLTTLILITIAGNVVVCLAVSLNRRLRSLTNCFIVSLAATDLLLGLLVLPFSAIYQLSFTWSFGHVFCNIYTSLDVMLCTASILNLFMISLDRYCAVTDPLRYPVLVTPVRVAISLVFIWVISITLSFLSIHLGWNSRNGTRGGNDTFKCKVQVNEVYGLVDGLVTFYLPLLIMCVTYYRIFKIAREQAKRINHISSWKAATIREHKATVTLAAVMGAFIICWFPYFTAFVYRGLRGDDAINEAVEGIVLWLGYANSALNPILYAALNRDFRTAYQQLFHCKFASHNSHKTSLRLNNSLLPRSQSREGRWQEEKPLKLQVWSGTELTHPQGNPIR

| Compound | Relative potency (cimetidine = 1) [1, 2] | ED50 [1] [µmol/kg] | ED50 (histamine H2 receptors) [mg/kg] | Relative potency (cimetidine = 1) ([1]; rat, in vivo, iv) |
| --- | --- | --- | --- | --- |
| O=C(NCCCOc1cccc(CN2CCC(O)CC2)c1)c1ccc[n+]([O-])c1 [SR 58067, N-[3-[3-(4-hydroxypiperidinomethyl)phenoxy]propyl]-3-pyridinecarboxamide 1-oxide] | 1.34 | 0.71 | – | – |
| O=C(NCCCOc1cccc(CN2CCCC2)c1)c1ccc[n+]([O-])c1 [CM 57891, N-[3-(3-pyrrolidinomethylphenoxy)propyl]-3-pyridinecarboxamide 1-oxide] | 2.43 | 0.39 | – | – |
| O=C(NCCCOc1cc(CN2CCCCC2)ccn1)c1ccc[n+]([O-])c1 [SR 58065, N-[3-(4-piperidinomethylpyrid-2-yloxy)propyl]3-pyridinecarboxamide 1-oxide] | 1.48 | 0.64 | – | – |
| O=C(NCCCOc1cccc(CN2CCCCCC2)c1)c1ccc[n+]([O-])c1 [SR 58052, N-[3-(3-hexamethyleneiminomethylphenoxy)propyl]-3-pyridinecarboxamide 1-oxide] | 3.80 | 0.25 | – | – |
| O=CNCCCOc1cccc(CN2CCCC2)c1 [Compound IV, reference compound] | 0.47 | 2.01 | 0.84 | – |
| CC1CCCN(Cc2cccc(OCCCNC(=O)c3ccc[n+]([O-])c3)c2)C1 (centres unmarked) [SR 58042, N-[3-[3-(3-methylpiperidinomethyl)phenoxy]propyl]-3-pyridinecarboxamide1-oxide] | 6.78 | 0.14 | – | – |
| CC1CCN(Cc2cccc(OCCCNC(=O)c3ccc[n+]([O-])c3)c2)CC1 [SR 58037, N-[3-[3-(4-methylpiperidinomethyl)phenoxy]propyl]-3-pyridinecarboxamide 1-oxide] | 7.31 | 0.13 | – | – |
| O=C(NCCCOc1cccc(CN2CCCCC2)c1)c1ccc[n+]([O-])c1 [SR 58017A, N-[3-(3-piperidinomethylphenoxy)propyl]-3-pyridinecarboxamide 1-oxide sesquioxalate] | 8.64 | 0.11 | – | – |
| O=C(NCCCOc1cccc(CN2CCCC2)c1)c1cccnc1 [Compound V, reference compound] | 0.43 | 2.22 | 1.25 | – |
| CNC(=C[N+](=O)[O-])NCCSCc1ccc(CN(C)C)o1 [Ranitidine, N-[2-[[5-[(dimethylamino)methyl]furfuryl]thio]ethyl]-N'-methyl-2-nitro-1,1-ethenediamine, reference compound] | – | – | – | 3.80 |
| CCCCN(CCCC)Cc1cccc(OCCCNC(=O)c2ccc[n+]([O-])c2)c1 [SR 58062, N-[3-(3-di-n-butylaminomethylphenoxy)propyl]-3-pyridinecarboxamide 1-oxide] | 1.19 | 0.8 | – | – |
